In patent US20100041710A1, “PENETRATION ENHANCER FOR INSECTICIDES” (priority 2006, published 2010):
Read-outs that look alike come from different tables or passages of the source.

Columns and labels:
[1] = Experimental: In this test, the penetration of active substances through enzymatically isolated cuticles of apple tree leaves was measured. The cuticles represent all green plant parts, such as leaf blade, petiole, stalk, trunk, hypocotyl and many fruits.
Leaves which were cut off in the stage of full development of apple trees of the Golden Delicious variety were used. The isolation of the cuticles was effected in a manner such that • first, leaf disks marked on the underside with dye and punched out were filled by means of vacuum infiltration with a pectinase solution (0.2 to 2% strength by weight) buffered to a pH between 3 and 4, • sodium azide was then added and • the leaf disks thus treated were allowed to stand until disintegration of the original leaf structure and detachment of the noncellular cuticle.
Thereafter, only those cuticles of the upper sides of the leaves which were free of stomata and hairs were further used. They were washed several times alternately with water and a buffer solution at pH 7. The cleaned cuticles obtained were finally drawn onto small Teflon plates and smoothed and dried with a gentle air jet.
In the next step, the cuticle membranes thus obtained were placed in stainless steel diffusion cells (=transport chambers) for membrane transport investigations. For this purpose, the cuticles were placed by means of forceps centrally on the silicone grease-coated edges of the diffusion cells and closed with a likewise greased ring. The arrangement was chosen so that the morphological outside of the cuticles faced outward, i.e. toward the air, while the original inside faced the interior of the diffusion cell. The diffusion cells were filled with water or with a mixture of water and solvent.
For determining the penetration, in each case 10 μl of a spray liquor of the composition mentioned in the examples were applied to the outside of a cuticle.
In each case the solvents listed below in the table (tap water or a mixture with 20% by weight of acetone/80% by weight of tap water) were used in the spray liquors.
After the application of the spray liquors, in each case the solvent was allowed to evaporate, and in each case the chambers were then turned around and placed in thermostated trays, air having a defined temperature and atmospheric humidity being blown onto the outside of the cuticle. The incipient penetration therefore took place at a relative humidity of 60% and a set temperature of 20 or 25° C. The active substance penetration was measured with radioactively marked active substance.

crop plant = test: Crop plant tolerance tests; details: compared with other alkyl ester additives
[2] = Table 1, 0.18 g/l of thiacloprid in tap water, apple leaf cuticles, 20° C., rel. humidity 60%, mean of 4-8 repetitions
[3] = Table 2, 0.3 g/l of active substance, tap water (thiacloprid) or acetone/tap water 20/80% by weight (spirotetramat), 20-25° C., rel. humidity 56-60%, mean of 4-8 repetitions
[4] = Table 3, 0.1 g/l of imidacloprid in tap water, apple leaf cuticles, 20-25° C., rel. humidity 56-60%, mean of 10 repetitions

With `N#C/N=C1\SCCN1Cc1ccc(Cl)nc1` [thiacloprid] the “% Penetration after 3 h” value [1, 2] was 0.1%, the “% Penetration after 24 h” value [1, 2] was 0.8% and the “% Penetration after 3 h” value [1, 3] was 0.1%. For the same compound, the “% Penetration after 48 h” value [1, 3] was 1.0%.
In the case of `CCCCOCCOP(=O)(OCCOCCCC)OCCOCCCC` [TBEP, tributoxyethyl phosphate], the “Increase in uptake of active substances compared with prior-art penetration enhancers” value ([1]; summary of table 3 (imidacloprid), versus TBP and TPP) is reported as “advantageously higher increase in uptake of active substances than the penetration enhancers of the prior art” and the Crop plant tolerance (crop plant) is reported as “more tolerant than other alkyl ester additives”.
In the case of `CCOC(=O)OC1=C(c2cc(C)ccc2C)C(=O)N[C@]12CC[C@@H](OC)CC2` [spirotetramat, cis-3-(2,5-dimethylphenyl)-8-methoxy-2-oxo-1-azaspiro[4.5]dec-3-en-4-yl ethyl carbonate], the “% Penetration after 3 h” value [1, 3] is reported as 0% and the “% Penetration after 48 h” value [1, 3] is reported as 0.3%.
In the case of `O=[N+]([O-])NC1=NCCN1Cc1ccc(Cl)nc1` [imidacloprid], the “% Penetration after 3 h” value [1, 4] is reported as 0.3% and the “% Penetration after 24 h” value [1, 4] is reported as 0.5%.
